Our source for the IC50 and inhibition values is US6632829B2, “Sulfonamides and derivatives thereof that modulate the activity of endothelin” (Texas Biotechnology Corp., priority 1996, dated 2003).

For assay [1], the target named is T1, human ETA receptors (Homo sapiens, UniProt P25101).
T1 construct: endogenous in cells; host or cells: TE 671 cells (ATCC HTB 139), membrane preparation
T1 sequence (P25101 21-427): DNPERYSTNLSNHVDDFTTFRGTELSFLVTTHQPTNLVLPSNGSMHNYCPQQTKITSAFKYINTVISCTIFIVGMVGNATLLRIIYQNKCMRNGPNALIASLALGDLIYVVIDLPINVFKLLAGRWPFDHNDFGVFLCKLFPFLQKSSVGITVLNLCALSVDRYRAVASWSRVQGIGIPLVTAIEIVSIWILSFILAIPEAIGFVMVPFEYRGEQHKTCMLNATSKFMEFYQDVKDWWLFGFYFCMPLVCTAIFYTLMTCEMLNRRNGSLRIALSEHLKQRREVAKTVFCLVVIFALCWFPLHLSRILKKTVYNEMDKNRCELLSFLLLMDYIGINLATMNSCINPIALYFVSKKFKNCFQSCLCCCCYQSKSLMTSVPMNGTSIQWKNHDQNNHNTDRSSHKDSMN
The assay is described as follows: Endothelin binding inhibition, Binding Test #1: competition with 125I-ET-1 for ETA receptors on TE 671 cell membranes. The method, then:
(§1) Cells from multiple flasks were collected by scraping, pooled and centrifuged for 10 min at 190×g. The cells were resuspended in phosphate buffered saline (PBS) containing 10 mM EDTA using a Tenbroeck homogenizer. The suspension was centrifuged at 4° C. at 57,800×g for 15 min, the pellet was resuspended in 5 mL of buffer A (5 mM HEPES buffer, pH 7.4 containing aprotinin (100 KIU/mL)) and then frozen and thawed once. 5 mL of Buffer B (5 mM HEPES Buffer, pH 7.4 containing 10 mM MnCl2 and 0.001% deoxyribonuclease Type 1) was added, the suspension mixed by inversion and then incubated at 37° C. for 30 minutes. The mixture was centrifuged at 57,800×g as described above, the pellet washed twice with buffer A and then resuspended in buffer C (30 mM HEPES buffer, pH 7.4 containing aprotinin (100 KIU/mL) to give a final protein concentration of 2 mg/mL and stored at −70° C. until use.
The membrane suspension (50 μL), containing up to 8 μg of membrane protein, was added to each of (A), (B), or (C). […] Alternatively, the incubation was conducted at 24° C.
The supernatant, containing unbound radioactivity, was decanted and the pellet counted on a Genesys multiwell gamma counter. The degree of inhibition of binding (D) was calculated according to the following equation: [formula]
Each test was generally performed in triplicate.

For assay [2], the target named is T2, human ETB receptor (Homo sapiens, UniProt P24530).
T2 construct: expressed in transfected cells; host or cells: COS7 cells
T2 sequence (P24530 27-442): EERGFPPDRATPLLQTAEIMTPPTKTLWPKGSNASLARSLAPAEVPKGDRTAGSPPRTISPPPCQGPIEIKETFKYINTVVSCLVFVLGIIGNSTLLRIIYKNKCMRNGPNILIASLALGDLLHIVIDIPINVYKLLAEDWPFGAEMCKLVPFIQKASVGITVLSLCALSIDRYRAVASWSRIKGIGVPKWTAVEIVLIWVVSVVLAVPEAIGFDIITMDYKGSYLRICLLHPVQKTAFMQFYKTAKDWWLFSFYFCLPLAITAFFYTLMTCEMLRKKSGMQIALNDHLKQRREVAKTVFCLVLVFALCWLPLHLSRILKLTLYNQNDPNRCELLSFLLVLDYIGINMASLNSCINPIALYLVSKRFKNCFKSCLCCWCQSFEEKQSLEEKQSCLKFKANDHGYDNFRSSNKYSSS
Nature of the assay: Endothelin binding inhibition, Binding Test #2: competition with 125I-ET-1 for ETB receptors on transfected COS7 cell membranes.
Description: Compounds that are potential endothelin antagonists are identified by testing their ability to compete with ^125I-labeled ET-1 for binding to human ETA receptors or ETB receptors present on isolated cell membranes. The effectiveness of the test compound as an antagonist or agonist of the biological tissue response of endothelin can also be assessed by measuring the effect on endothelin induced contraction of isolated rat thoracic aortic rings. The ability of the compounds to act as antagonists or agonists for ETB receptors can be assess by testing the ability of the compounds are to inhibit endothelin-1 induced prostacyclin release from cultured bovine aortic endothelial cells.
COS7 cells were transfected with DNA encoding the ETB receptor, The resulting cells, which express the human ETB receptor, were grown to confluence in T-150 flasks. Membrane was prepared as described above. The binding assay was performed as described above using the membrane preparation diluted with binding buffer to a concentration of 1 μg/50 μL.
as §1, with “Briefly, the COS7 cells, described above, that had been transfected with DNA encoding the ETB receptor and express the human ETB receptor on their surfaces were grown to confluence in T-175 flasks. Cells” for “Cells”, “C.” for “C. at”, “once. Five” for “once. 5”, “2 mg/mL.” for “2 mg/mL and stored at −70° C. until use.”
The binding assay was performed as described above using the membrane preparation diluted to give 1 μg/50 μL of binding buffer.

Setting [3] is: incubation at 24° C. (values marked †).
Where [4] appears, read: incubation at 4° C. (values without †).

For the molecule `Cc1cc(CCC(C)C)ccc1-c1ccsc1S(=O)(=O)Nc1onc(C)c1Br` [N-(4-bromo-3-methyl-5-isoxazolyl)-3-(4-iso-pentyl-2-methylphenyl)thiophene-2-sulfonamide], the IC50 in assay [1] (setting [3]) stood at 107 nM; in assay [2] (setting [3]) it was 2400 nM.

With `Cc1noc(NS(=O)(=O)c2ccc(-c3cc4ccccc4s3)s2)c1Br` [N-(4-bromo-3-methyl-5-isoxazolyl)-5-(benzo[b]thien-2-yl)thiophene-2-sulfonamide], the figures for the IC50 in assay [1] (setting [3]) and in assay [2] (setting [3]) were 16000 nM and 800 nM, respectively.

Take `Cc1noc(NS(=O)(=O)c2sccc2Cc2ccccc2)c1Br` [N-(4-bromo-3-methyl-5-isoxazolyl)-3-benzylthiophene-2-sulfonamide]: the IC50 came to 1600 nM in assay [1] (setting [3]) and 39000 nM in assay [2] (setting [3]).

For `Cc1cc(C)c(OCc2ccsc2S(=O)(=O)Nc2onc(C)c2Br)c(C)c1` [N-(4-bromo-3-methyl-5-isoxazolyl)-3-[(2,4,6-trimethylphenoxy)methyl]thiophene-2-sulfonamide], the IC50 came to 45.7 nM in assay [1] (setting [3]) and 4680 nM in assay [2] (setting [3]).

Take `Cc1ccc(OCc2sccc2S(=O)(=O)Nc2onc(C)c2Br)cc1` [N-(4-bromo-3-methyl-5-isoxazolyl)-2-[(4-methylphenoxy)methyl]thiophene-3-sulfonamide]: the IC50 in assay [1] (setting [3]) was found to be 1200 nM; in assay [2] (setting [3]), 15000 nM.

Take `Cc1ccc(CC(=O)c2sccc2S(=O)(=O)Nc2onc(C)c2C)c(C)c1` [N-(3,4-dimethyl-5-isoxazolyl)-2-(2,4-dimethylphenylacetyl)thiophene-3-sulfonamide]: the half-inhibitory concentration (IC50) in assay [1] (setting [3]) was determined as 2.7 nM; in assay [2] (setting [3]), 17400 nM.

As for `Cc1ccc(-c2ccsc2S(=O)(=O)Nc2onc(C)c2Br)c(C)c1` [N-(4-bromo-3-methyl-5-isoxazolyl)-3-(2,4-dimethylphenyl)thiophene-2-sulfonamide], the figures for the IC50 in assay [1] (setting [3]) and in assay [2] (setting [3]) were 100 nM and 60300 nM, respectively.

As for `Cc1noc(NS(=O)(=O)c2ccsc2N)c1Cl` [N-(4-chloro-3-methyl-5-isoxazolyl)-2-aminothiophene-3-sulfonamide], the 50% inhibitory concentration (IC50) was determined as 14000 nM in assay [1] (setting [3]) and 6200 nM in assay [2] (setting [3]).

For `Cc1ccc(-c2ccc(S(=O)(=O)Nc3onc(C)c3Br)s2)s1` [N-(4-bromo-3-methyl-5-isoxazolyl)-5-(5-methyl-2-thienyl)thiophene-2-sulfonamide], the IC50 in assay [1] (setting [3]) stood at 17000 nM; in assay [2] (setting [3]) it was 210 nM.

As to `Cc1cc(C)c(CCc2ccsc2S(=O)(=O)Nc2onc(C)c2Br)c(C)c1` [N-(4-bromo-3-methyl-5-isoxazolyl)-3-(2,4,6-trimethylphenethyl)thiophene-2-sulfonamide], the IC50 in assay [1] (setting [3]) came out at 55 nM; in assay [2] (setting [3]), 1620 nM.

For `Cc1ccc(CC(=O)c2sccc2S(=O)(=O)Nc2onc(C)c2Br)c(C)c1` [N-(4-bromo-3-methyl-5-isoxazolyl)-2-(2,4-dimethylphenylacetyl)thiophene-3-sulfonamide], the results for the IC50 in assay [1] (setting [3]) and in assay [2] (setting [3]) were 0.8 nM and 3600 nM, respectively.

With `Cc1noc(NS(=O)(=O)c2sccc2-c2ccc(CC(C)C)cc2)c1Br` [N-(4-bromo-3-methyl-5-isoxazolyl)-3-(4-iso-butylphenyl)thiophene-2-sulfonamide], the IC50 came to 82.3 nM in assay [1] (setting [3]) and 2760 nM in assay [2] (setting [3]).

As for `Cc1ccc(OCc2ccsc2S(=O)(=O)Nc2onc(C)c2Br)cc1` [N-(4-bromo-3-methyl-5-isoxazolyl)-3-[(4-methylphenoxy)methyl]thiophene-2-sulfonamide], the IC50 in assay [1] (setting [3]) is 1640 nM; in assay [2] (setting [3]), 22800 nM.

On to `COc1cc(NC(=O)c2sccc2S(=O)(=O)Nc2onc(C)c2Cl)c(C(N)=O)cc1OC` [N-(4-chloro-3-methyl-5-isoxazolyl)-2-(2-carboxamido-4,5-dimethoxyphenylaminocarbonyl)thiophene-3-sulfonamide], for which the IC50 was 11 nM in assay [1] (setting [3]) and 61000 nM in assay [2] (setting [3]).

Take “3-[N-(Benzo-2,1,3-thiadiazol-5-yl)aminosulfonyl]thiophene-2-carboxylic acid, 3-cyanomethyl-2,4,6-trimethylanilide”: the figures for the IC50 in assay [1] (setting [3]) and in assay [2] (setting [3]) were 0.66 nM and 9550 nM, respectively.

For the molecule `Cc1noc(NS(=O)(=O)c2ccsc2C(=O)Nc2ccccc2C(=O)O)c1Br` [N-(4-bromo-3-methyl-5-isoxazolyl)-2-[2-carboxylphenyl)aminocarbonyl]-thiophene-3-sulfonamide], the IC50 in assay [1] (setting [3]) came to 210 nM; in assay [2] (setting [3]), 20000 nM.

Turning to `Cc1ccc(/C=C/c2ccsc2S(=O)(=O)Nc2onc(C)c2Br)cc1` [N-(4-bromo-3-methyl-5-isoxazolyl)-3-(4-methyl-trans-styryl)thiophene-2-sulfonamide], the figures for the IC50 in assay [1] (setting [3]) and in assay [2] (setting [3]) were 940 nM and 660 nM, respectively.

As to `Cc1noc(NS(=O)(=O)c2csc(-c3ccccc3C=O)c2)c1Br` [N-(4-bromo-3-methyl-5-isoxazolyl)-5-(2-formylphenyl)thiophene-3-sulfonamide], the IC50 in assay [1] (setting [4]) turned out to be 3460 nM; in assay [1] (setting [3]) it was 12300 nM; in assay [2] (setting [4]), 529 nM; in assay [2] (setting [3]) it was 1280 ± 710 nM.

As for `Cc1cc2c(cc1CC(=O)c1sccc1S(=O)(=O)Nc1onc(C)c1C)OCO2` [N-(3,4-dimethyl-5-isoxazolyl)-2-[2-methyl-4,5-(methylenedioxy)phenylacetyl]thiophene-3-sulfonamide], the values for the IC50 in assay [1] (setting [3]) and in assay [2] (setting [3]) were 3.28 nM and 34300 nM, respectively.

Regarding “N-(4-chloro-3-methyl-5-isoxazolyl)-2-[β-acetoxy-2-methyl-4,5-(methylenedioxy)styryl]thiophene-3-sulfonamide”, the IC50 in assay [1] (setting [4]) is 5.44 nM; in assay [2] (setting [3]), 3740 nM.

As to `Cc1noc(NS(=O)(=O)c2c(C)sc3ccccc23)c1C` [N-(3,4-dimethyl-5-isoxazolyl)-2-methylbenzo[b]thiophene-3-sulfonamide], the values for the half-maximal inhibitory concentration (IC50) in assay [1] (setting [4]) and in assay [2] (setting [4]) were 167 nM and 16600 nM, respectively.

`Cc1cc(C)c(OC(=O)c2sccc2S(=O)(=O)Nc2onc(C)c2Cl)c(C)c1` [N-(4-chloro-3-methyl-5-isoxazolyl)-2-[(2,4,6-trimethylphenoxy)carbonyl]thiophene-3-sulfonamide]: the figures for the IC50 in assay [1] (setting [3]) and in assay [2] (setting [3]) were 77.6 nM and 30200 nM, respectively.

For `Cc1noc(NS(=O)(=O)c2ccsc2C(=O)Oc2ccc3c(c2)OCO3)c1C` [N-(3,4-dimethyl-5-isoxazolyl)-2-{(3,4-(methylenedioxy)phenoxy]carbonyl}thiophene-3-sulfonamide], in assay [1] (setting [3]), the IC50 came out at 3610 nM. For the same molecule, the inhibition at 100 µM in assay [2] (read-out: ETB % inhibition @ 100 μM, @ 100 μM, incubation at 24° C.) was 30%.
